The record followed here is patent EP4722219A1 (Gan & Lee Pharmaceuticals Co., Ltd., priority 2023, dated 2024).

Format in all cases: cell-based
The target of test [1] is T1, AR protein (Homo sapiens, UniProt P10275).
T1 construct: host or cells: VCaP
T1 sequence (P10275 1-920): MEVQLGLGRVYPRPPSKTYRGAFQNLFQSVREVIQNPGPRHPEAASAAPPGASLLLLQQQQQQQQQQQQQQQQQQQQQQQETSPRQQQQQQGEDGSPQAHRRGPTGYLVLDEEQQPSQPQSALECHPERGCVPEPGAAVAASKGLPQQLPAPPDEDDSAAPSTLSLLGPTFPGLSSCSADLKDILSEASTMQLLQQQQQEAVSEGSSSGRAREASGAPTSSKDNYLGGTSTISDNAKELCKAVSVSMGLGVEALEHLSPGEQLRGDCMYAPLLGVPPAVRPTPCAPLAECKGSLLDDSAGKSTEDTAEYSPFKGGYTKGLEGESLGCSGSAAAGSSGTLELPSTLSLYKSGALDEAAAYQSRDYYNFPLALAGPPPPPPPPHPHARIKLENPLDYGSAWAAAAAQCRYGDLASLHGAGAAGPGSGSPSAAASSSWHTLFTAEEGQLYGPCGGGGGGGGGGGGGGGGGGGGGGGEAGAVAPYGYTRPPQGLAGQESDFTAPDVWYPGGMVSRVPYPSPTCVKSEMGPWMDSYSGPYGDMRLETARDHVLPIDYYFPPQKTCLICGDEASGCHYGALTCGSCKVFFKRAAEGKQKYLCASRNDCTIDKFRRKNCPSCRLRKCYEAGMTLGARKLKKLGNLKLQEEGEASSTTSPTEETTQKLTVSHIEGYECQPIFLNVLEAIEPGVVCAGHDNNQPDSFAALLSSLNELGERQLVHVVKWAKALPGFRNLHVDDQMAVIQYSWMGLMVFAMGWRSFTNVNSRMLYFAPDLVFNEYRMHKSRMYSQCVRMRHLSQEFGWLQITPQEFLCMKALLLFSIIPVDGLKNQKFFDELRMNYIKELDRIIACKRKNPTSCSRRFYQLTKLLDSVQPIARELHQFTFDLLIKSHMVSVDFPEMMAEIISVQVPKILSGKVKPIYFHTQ
The experiment in a line: AR protein degradation in VCaP cells (Western blot). The note with it: 8h. How it is done:
The degradation activity of the compounds disclosed in the present invention on AR protein in VCaP cells (cell source: ATCC)
The AR-positive human prostate cancer cells VCaP cultured in DMEM (GiBco catalog number 11995-065) containing 10% FBS (Hyclone catalog number SH30406.05) was inoculated in a six-well microplate (Thermo catalog number 140675) at a concentration of 3×10^5 cells/ well. After being cultured overnight in a carbon dioxide incubator (ESCO), the prepared compound of the present invention and the positive control sample ARV-766 (Annaiji) solution of different concentrations were added at a volume of 1 µL/well to make the final concentrations of the compound and the positive control sample reach 5nM and 0.5nM, respectively. At the same time, the corresponding solvent control was set and cultured for 8h. After 8h of culture, the culture medium was removed, and the cells were washed with PBS. RIPA lysis buffer containing 1% Protease Inhibitor Cocktail was added. After lysis and centrifugation, a total protein extract was obtained, and the protein concentration in the extract was detected by BCA method. Protein electrophoresis was performed using SDS-PAGE, and then the protein was transferred to a PVDF (Millipore Sigma catalog number PSRP010R5) membrane at a constant voltage of 100V for 60min. The PVDF membrane was placed in a 5% milk powder 1×TBST solution and blocked at room temperature for 1h. The primary antibody solution (Anti-Androgen receptor, Cell Signaling Technology catalog number: 5153S; 1:2000 dilution) was prepared and was incubated at 4°C overnight. The primary antibody solution was discarded and the PVDF membrane was washed with 1×TBST for 5 minutes each time, for three times. The secondary antibody solution (Thermo catalog number SA5-35571; 1:7500 dilution) was prepared and was incubated at room temperature for 1 hour. The secondary antibody solution was discarded and the PVDF membrane was washed with 1×TBST for 5 minutes each time, for three times. A dual-color infrared laser imaging system (Licor catalog number Odyssey CLX) was used for Western membrane imaging. Image Studio software was used to analyze the grayscale of the bands. GAPDH protein bands were also detected for each sample as the reference. The AR protein degradation rate of the compound and the positive control sample was calculated based on the grayscale of the protein bands.
Table 7 Degradation rate of AR protein in VCaP cells by the compounds disclosed in the present invention

For test [2], the system named is LNCaP cells. The experiment in a line: Inhibition of LNCaP cell proliferation (WST-8). The note with it: Homo sapiens, LNCaP FGC cells, 96 hours. How it is done:
The inhibitory activity of compounds disclosed in the present invention on LNCaP cell proliferation
The cells were cultured overnight in a 37°C, 5% CO2 cell incubator. […] The final concentration of the compound was 9 concentration points of 5-fold serial dilution starting from 10 µM. […] The cells were cultured in a cell culture incubator at 37°C and 5% CO2 for 96 hours. On the sixth day, the 96-well cell culture plate was removed, and 1/10 volume of WST-8 (Beytime, C0040) reagent was added to each well. The absorbance at 450 nm was detected using a microplate reader (TECAN, F50).

The target in test [3] is T2, AR protein (Homo sapiens, UniProt P10275, T878A).
T2 construct: host or cells: LNCaP FGC
T2 sequence (P10275 1-920 T878A): T1 sequence (P10275 1-920) with T878A
The experiment in a line: AR protein degradation in LNCaP cells (Western blot). As to conditions: 8 hours. How it is done: At the same time, the corresponding solvent control was set and cultured for 8 hours. After 8 hours of culture, the culture medium was removed, the cells were washed with PBS, and RIPA lysis buffer containing 1% Protease Inhibitor Cocktail was added. After lysis and centrifugation, the total protein extract was obtained, and the protein concentration in the extract was detected by BCA method. Protein electrophoresis was performed using SDS-PAGE, and then the protein was transferred to a PVDF (Millipore Sigma catalog number PSRP010R5) membrane at a constant voltage of 100V for 60 minutes. The PVDF membrane was placed in a 5% milk powder 1 ×TBST solution and blocked at room temperature for 1 hour. […] The primary antibody solution was discarded and the PVDF membrane was washed with 1×TBST for 5 minutes each time, for three times. […] The secondary antibody solution was discarded and the PVDF membrane was washed with 1 ×TBST for 5 minutes each time, for three times. A dual-color infrared laser imaging system (Licor catalog number Odyssey CLX) was used for Western membrane imaging. The Image Studio software was used to analyze the grayscale of the bands. GAPDH protein bands were also detected for each sample as the reference. The AR protein degradation rate of the compound and the positive control sample was calculated based on the grayscale of the protein bands.

In test [4] the target is T3, ERα (Homo sapiens, UniProt P03372).
T3 sequence (P03372 1-595): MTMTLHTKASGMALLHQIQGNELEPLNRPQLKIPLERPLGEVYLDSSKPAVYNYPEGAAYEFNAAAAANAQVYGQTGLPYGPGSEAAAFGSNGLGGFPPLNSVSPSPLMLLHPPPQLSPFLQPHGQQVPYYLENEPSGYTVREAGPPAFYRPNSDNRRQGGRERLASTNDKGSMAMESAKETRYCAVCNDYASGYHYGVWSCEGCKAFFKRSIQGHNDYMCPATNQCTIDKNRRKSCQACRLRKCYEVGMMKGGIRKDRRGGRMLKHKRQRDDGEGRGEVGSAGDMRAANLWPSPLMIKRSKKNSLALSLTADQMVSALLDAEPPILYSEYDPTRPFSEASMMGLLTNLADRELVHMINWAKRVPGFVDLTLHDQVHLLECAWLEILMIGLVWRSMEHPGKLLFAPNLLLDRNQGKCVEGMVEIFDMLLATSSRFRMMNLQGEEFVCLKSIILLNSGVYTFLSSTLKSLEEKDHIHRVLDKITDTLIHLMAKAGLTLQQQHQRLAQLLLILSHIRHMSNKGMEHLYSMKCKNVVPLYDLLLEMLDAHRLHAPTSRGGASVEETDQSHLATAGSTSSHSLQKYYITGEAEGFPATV
Briefly: ERα degradation in T-47D cells (Western blot). As to conditions: 4 hours. In short, it runs like this:
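ERα was quantified by immunoblot of RIPA lysates (20 µg total protein), normalised to an internal reference band, and degradation was expressed against control. Lysates came from T-47D cells plated at 3×10^5 cells/well and dosed 4 hours at 37°C with compound at 0.15-1000 nM final concentration.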

For test [5], the system named is MCF-7 cells. The experiment in a line: Inhibition of cell proliferation in MCF-7 cells (CCK-8). The note with it: Homo sapiens, MCF7, 144 h, MCF-7 cell proliferation, 6 days treatment. In short, it runs like this: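 IC50 from CCK-8 viability-based inhibition after 6-day treatment of MCF-7 cells (800 cells/well, 10% FBS DMEM, 37 °C, 5% CO2) with serially varied compound concentrations.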

The target of test [6] is T3, ERα. The experiment in a line: ERα degradation in MCF-7 cells (Western blot). Further details: host or cells: MCF-7. As to conditions: 4 hours. The method, boiled down:
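ERα degradation was quantified by immunoblot densitometry, ERα signal divided by internal-reference signal and compared with control. Compounds were applied to MCF-7 cells for 4 hours at final concentrations of 0.15–1000 nM, with 20 µg total protein loaded per lane.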

Test [7] has as its system T-47D cells. The experiment in a line: Inhibition of cell proliferation in T-47D cells (CCK-8). The note with it: Homo sapiens, T47D, 144 h, 6 days treatment, CCK-8 cell viability. In short, it runs like this: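 Viability by CCK-8 after a 6-day, 37 °C/5% CO2 exposure of T-47D cells (3,000/well, RPMI-1640 + 10% FBS) to graded PROTAC concentrations. Inhibition rates gave the IC50.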

Where a chain is given by its changes, count along the chain named. Some results are limits rather than exact numbers.

`COc1cc(O[C@H]2C(C)(C)[C@H](NC(=O)c3ccc(N4CCC(CN5CCC6(CC5)COc5c6ccc6c5n(C)c(=O)n6C5CCC(=O)NC5=O)CC4)cc3)C2(C)C)ccc1C#N` (some centres unmarked) [A-P-28] came in with an AR protein degradation rate at fixed concentration (%) at 0.0005 µM in test [1] (0.5 nM) of 80%. Also, the AR protein degradation rate at fixed concentration (%) at 0.005 µM in test [1] (5 nM) worked out at 80%. The compound also displayed an IC50 in test [2] of 20.7 µM. Besides, the percent AR protein degradation at a fixed concentration at 0.01 µM in test [3] (10 nM) came out at 64%. The percent AR protein degradation at a fixed concentration at 0.1 µM in test [3] (100 nM) stood at 32%.

Take `C[C@@H]1Cc2cc(O)ccc2C(c2c(F)cc(N3CCC4(CC3)CC(N3CC5(CCC6(CC5)COc5c6ccc6c5CN(C5CCC(=O)NC5=O)C6=O)C3)C4)cc2F)N1CC(F)F` (stereo partly drawn) [ER-P-28, 3-(1-(7-(4-((3R)-2-(2,2-difluoroethyl)-6-hydroxy-3-methyl-1,2,3,4-tetrahydroisoquinolin-1-yl)-3,5-difluorophenyl)-7-azaspiro[3.5]nonan-2-yl)-6"-oxo-6",8"-dihydro-2"H,7"H-dispiro[azetidine-3,1'-cyclohexane-4',3"-furo[2,3-e]isoindol]-7"-yl)piperidine-2,6-dione]: the entries for the “Degradation rate of ERα in T-47D cells (%)” value in test [4] (1nM) and in test [4] (10nM) were 41% and 59%, respectively. The values for the IC50 in test [5] and in test [7] were < 0.256 nM and 1.56 nM, respectively. Further, the results for the “Degradation rate of ERα in MCF-7 cells (%)” value in test [6] (1nM) and in test [6] (10nM) were 38% and 63%, respectively.

In the case of `O=C1CC[C@H](NC(=O)c2ccc3c(c2F)OCC32CCN(CC3CCN(c4ccc([C@@H]5c6ccc(O)cc6CC[C@@H]5c5ccccc5)cc4)CC3)CC2)C(=O)N1` [ER-P-42, N-((S)-2,6-dioxopiperidin-3-yl)-7-fluoro-1'-((1-(4-((1R,2S)-6-hydroxy-2-phenyl-1,2,3,4-tetrahydronaphthalen-1-yl)phenyl)piperidin-4-yl)methyl)-2H-spiro[benzofuran-3,4'-piperidine]-6-carboxamide], the entries for the “Degradation rate of ERα in T-47D cells (%)” value in test [4] (1nM) and in test [4] (10nM) were -27% and -28%, respectively. For the same compound, the results for the IC50 in test [5] and in test [7] were 4500 nM and 10.4 nM, respectively. For the same compound, the figures for the “Degradation rate of ERα in MCF-7 cells (%)” value in test [6] (1nM) and in test [6] (10nM) were -20% and -3%, respectively.
